Measured values: PubChem BioAssay (NCI)
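Values below derive from 48-hour exposures of cells grown in 96-well plates, with endpoints linearly interpolated between the two concentrations bracketing the appropriate inhibition level. GI50 is the concentration that inhibits growth by half. TGI: concentration producing complete growth inhibition.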

Tests used:
Assay in all cases: NCI-60 cell line screen, 48 h
PC-3 prostate = tested on: PC-3 prostate
NCI-H460 lung = tested on: NCI-H460 lung
SK-MEL-28 melanoma = tested on: SK-MEL-28 melanoma
U251 CNS = tested on: U251 CNS
SF-539 CNS = tested on: SF-539 CNS
A549 NSCLC = tested on: A549 NSCLC
OVCAR-8 ovarian = tested on: OVCAR-8 ovarian
COLO 205 colon = tested on: COLO 205 colon
MALME-3M melanoma = tested on: MALME-3M melanoma
OVCAR-5 ovarian = tested on: OVCAR-5 ovarian

Structure (SMILES) | GI50 (PC-3 prostate) | TGI (PC-3 prostate) | GI50 (NCI-H460 lung) | TGI (NCI-H460 lung) | GI50 (SK-MEL-28 melanoma) | TGI (SK-MEL-28 melanoma) | GI50 (U251 CNS) | TGI (U251 CNS) | GI50 (SF-539 CNS) | TGI (SF-539 CNS) | GI50 (A549 NSCLC) | TGI (A549 NSCLC) | GI50 (OVCAR-8 ovarian) | TGI (OVCAR-8 ovarian) | GI50 (COLO 205 colon) | TGI (COLO 205 colon) | GI50 (MALME-3M melanoma) | TGI (MALME-3M melanoma) | GI50 (OVCAR-5 ovarian) | TGI (OVCAR-5 ovarian)
CCNCCNc1cc(-c2cccc(C(F)(F)F)c2)c(C#N)c2nc3ccccc3n12 | 1.83 µM | 3.54 µM | 0.457 µM | 1.81 µM | 1.86 µM | 3.63 µM | 1.67 µM | 3.08 µM | 1.7 µM | 3.23 µM | 1.48 µM | 3 µM | 1.69 µM | 3.23 µM | 0.557 µM | 1.99 µM | 1.64 µM | 3.29 µM | 1.83 µM | 3.71 µM
N#CC[C@H](C1CCCC1)n1cc(-c2ncnc3[nH]ccc23)cn1 | 35.2 µM | > 100 µM | 14.4 µM | > 100 µM | 31.8 µM | > 100 µM | 32.5 µM | > 100 µM | 16.7 µM | 62.7 µM | 30.1 µM | > 100 µM | 30.3 µM | > 100 µM | 24.6 µM | 67.1 µM | 34.1 µM | > 100 µM | 26.7 µM | > 78.5 µM
CS(=O)(=O)c1nc(Cl)c(Cl)c(C#N)c1Cl | – | 11.6 µM | – | 32.4 µM | – | 4.75 µM | – | 11.7 µM | – | 11.3 µM | – | 40.4 µM | – | 9.77 µM | – | 3.08 µM | – | 4.45 µM | – | 9.41 µM
C[C@@H]1CN2[C@H]3[C@@H]1CC[C@]31CCC(=O)O[C@]1(C)[C@@H]1CC[C@H]3CCC=C3[C@@H]12 | > 70 µM | > 70 µM | > 70 µM | > 70 µM | > 70 µM | > 70 µM | > 70 µM | > 70 µM | > 70 µM | > 70 µM | > 70 µM | > 70 µM | > 70 µM | > 70 µM | > 70 µM | > 70 µM | > 70 µM | > 70 µM | > 70 µM | > 70 µM
Nc1cccc2nsnc12 | – | > 100 µM | – | > 100 µM | – | > 100 µM | – | > 100 µM | – | > 100 µM | – | > 100 µM | – | > 100 µM | – | > 100 µM | – | > 100 µM | – | > 100 µM
NC(=O)NC(=O)C1CCCCC1C(=O)O (centres undefined) | – | > 100 µM | – | > 100 µM | – | > 100 µM | – | > 100 µM | – | > 100 µM | – | > 100 µM | – | > 100 µM | – | > 100 µM | – | > 100 µM | – | > 100 µM
CCCCCCC1N=C(N)N=C(N)N1c1ccc(Cl)cc1 (centres undefined) | 2.9 µM | 52.8 µM | 4.69 µM | 18.5 µM | 8.66 µM | 21.8 µM | 2.53 µM | 14.7 µM | 4.16 µM | 18 µM | 4.83 µM | > 100 µM | 6.43 µM | > 100 µM | 12.5 µM | 26.7 µM | 2.1 µM | 21 µM | 10.7 µM | > 100 µM
O=C(CC1(O)C(=O)Nc2c(Cl)ccc(Cl)c21)c1ccc(C2CC2)cc1 (centres undefined) | 1.38 µM | 16.6 µM | 0.622 µM | 9 µM | 2.51 µM | 21.9 µM | 1.13 µM | 14.6 µM | 0.751 µM | 5.79 µM | 2.09 µM | 19.8 µM | 1.43 µM | 13.4 µM | 0.801 µM | 3.06 µM | 1.53 µM | 26.8 µM | 2.05 µM | 16.8 µM
CC(=O)N[C@@H](Cc1ccc(OP(=O)(O)O)cc1)C(=O)N[C@H]1CCC(=O)N2CCC[C@@H](C(=O)NCc3ccc(O)cc3)N2C1=O | > 25 µM | > 25 µM | > 25 µM | > 25 µM | > 25 µM | > 25 µM | > 25 µM | > 25 µM | > 25 µM | > 25 µM | > 25 µM | > 25 µM | > 25 µM | > 25 µM | > 25 µM | > 25 µM | > 25 µM | > 25 µM | > 25 µM | > 25 µM
COc1ccc(NC(=O)O[C@H]2[C@H](O[C@H]3[C@@H](O)COC(O[C@H]4C[C@H]5[C@@H]6CC=C7C[C@@H](O)CC[C@]7(C)[C@H]6CC[C@]5(C)[C@H]4[C@H](C)C(=O)CCC(C)C)[C@@H]3OC(C)=O)OC[C@@H](O)[C@@H]2O)cc1 (some centres undefined) | < 0.01 µM | 4.87 µM | < 0.01 µM | 1.76 µM | < 0.01 µM | 0.0127 µM | < 0.01 µM | 12.2 µM | < 0.01 µM | 0.0124 µM | < 0.01 µM | 20.5 µM | 7.75 µM | > 100 µM | 0.0105 µM | 0.0363 µM | 0.0115 µM | 3.25 µM | 0.169 µM | 26.2 µM
C=C(C)[C@@H]1CC[C@]2(C)[C@H](C=CC3=C4C[C@@](C)(CO)CC[C@]4(C)CC[C@]32C)[C@@]1(C)CCCN | 1.7 µM | 3.28 µM | 1.71 µM | 3.33 µM | 1.82 µM | 3.25 µM | 1.64 µM | 3.32 µM | 1.73 µM | 3.13 µM | 1.6 µM | 3.18 µM | 2.13 µM | 4.61 µM | 1.49 µM | 3.23 µM | 1.46 µM | 2.91 µM | 1.71 µM | 3.09 µM
COc1cc(C2C(C#N)=C(N)Oc3cc4c(cc32)OCO4)cc2c1OCO2 (centres undefined) | 0.278 µM | > 100 µM | 0.34 µM | 26.2 µM | 1.57 µM | > 100 µM | 0.314 µM | > 38 µM | 0.279 µM | – | 0.384 µM | > 100 µM | 0.466 µM | > 100 µM | 0.308 µM | 1.02 µM | 2.67 µM | > 100 µM | 1.29 µM | > 100 µM
CC(C)N(C[C@H]1O[C@@H](n2cnc3c(N)ncnc32)[C@H](O)[C@@H]1O)C1CC(CCc2nc3ccc(C(C)(C)C)cc3[nH]2)C1 (some centres undefined) | 97.9 µM | > 100 µM | > 100 µM | > 100 µM | > 39.3 µM | > 54.1 µM | > 100 µM | > 100 µM | > 100 µM | > 100 µM | > 100 µM | > 100 µM | > 100 µM | > 100 µM | 38.5 µM | > 100 µM | 20 µM | > 60.8 µM | > 46.9 µM | > 100 µM
